From patent publication US4962111A (priority 1989, dated 1990)
Values after ≈ are worked out from the molar mass of the structure shown. Like-named read-outs stand apart in the source and are kept apart here.

Experiments:
[1] = test system: Mycobacterium tuberculosis; assay: microbe, parasite or virus in culture; type: cell-based; settings: 99% (2 log) inhibition
Mycobacterium kansasii = assay: microbe, parasite or virus in culture; type: cell-based; settings: 99% (2 log) inhibition
[2] = test system: BCG (Bacillus Calmette-Guerin, an attenuated Mycobacterium bovis); assay: microbe, parasite or virus in culture; type: cell-based; settings: Mycobacterium tuberculosis variant bovis BCG, pH 5.8, pH 5.8
[3] = test system: Mycobacterium tuberculosis H37RV; settings: cited from earlier work
M. bovis = settings: cited from earlier work
other mycobacteria = settings: background statement; cited from earlier work
[4] = test system: Mycobacterium tuberculosis; settings: background statement; cited from earlier work
[5] = background statement; cited from earlier work
tuberculosis = settings: applied subcutaneously; cited from earlier work
[6] = Mycobacterium tuberculosis, pH 5.8, M. tb. BAK, read-out: MIC
[7] = Mycobacterium tuberculosis, pH 5.8, M. tb. BUR, read-out: MIC
[8] = Mycobacterium tuberculosis, pH 5.8, M. tb. CES, read-out: MIC
[9] = Mycobacterium tuberculosis, pH 5.8, M. tb. DOL, read-out: MIC
[10] = Mycobacterium tuberculosis, pH 5.8, M. tb. DOU, read-out: MIC
[11] = Mycobacterium tuberculosis, pH 5.8, M. tb. DUB, read-out: MIC
[12] = Mycobacterium tuberculosis, pH 5.8, M. tb. GLA, read-out: MIC
[13] = Mycobacterium tuberculosis, pH 5.8, M. tb. ING, read-out: MIC
[14] = Mycobacterium tuberculosis, pH 5.8, M. tb. LFL, read-out: MIC
[15] = Mycobacterium tuberculosis, pH 5.8, M. tb. MCQ, read-out: MIC
[16] = Mycobacterium tuberculosis, pH 5.8, M. tb. SMA, read-out: MIC
[17] = Mycobacterium tuberculosis, pH 5.8, M. tb. WOO, read-out: MIC

| Molecule | MIC [1, 6] [µg/mL] | MIC [1, 7] [µg/mL] | MIC [1, 8] [µg/mL] | MIC [1, 9] [µg/mL] | MIC [1, 10] [µg/mL] | MIC [1, 11] [µg/mL] | MIC [1, 12] [µg/mL] | MIC [1, 13] [µg/mL] | MIC [1, 14] [µg/mL] | MIC [1, 15] [µg/mL] | MIC [1, 16] [µg/mL] | MIC [1, 17] [µg/mL] | MIC (Mycobacterium kansasii; pH 5.8, M. kans. SCH) [µg/mL] | MIC (Mycobacterium kansasii; pH 5.8, M. kans. SWK) [µg/mL] | MIC [2] [µg/mL] | further results |
| --- | --- | --- | --- | --- | --- | --- | --- | --- | --- | --- | --- | --- | --- | --- | --- | --- |
| O=C(OCC(F)(F)F)c1cnccn1 [β, β, β-Trifluoroethyl Pyrazinoate] | 25 (≈ 121 µM) | 25 (≈ 121 µM) | 12.5 (≈ 60.6 µM) | 25 (≈ 121 µM) | 100 (≈ 485 µM) | 25 (≈ 121 µM) | 12.5 (≈ 60.6 µM) | 25 (≈ 121 µM) | 50 (≈ 243 µM) | 25 (≈ 121 µM) | 25 (≈ 121 µM) | 25 (≈ 121 µM) | 100 (≈ 485 µM) | 200 (≈ 970 µM) | 200 (≈ 970 µM) | – |
| CN(C)CCOC(=O)c1cnccn1 [N,N-dimethyl-2-aminoethyl pyrazinoate] | – | – | – | – | – | – | – | – | – | – | – | – | – | – | – | in vitro activity against Mycobacterium tuberculosis H37RV [3]: active |
| Cc1ccc(OC(=O)c2cnccn2)cc1 [p-Tolyl Pyrazinoate] | 12.5 (≈ 58.4 µM) | 12.5 (≈ 58.4 µM) | 12.5 (≈ 58.4 µM) | 6.25 (≈ 29.2 µM) | – | 25 (≈ 117 µM) | 6.25 (≈ 29.2 µM) | 25 (≈ 117 µM) | 12.5 (≈ 58.4 µM) | 6.25 (≈ 29.2 µM) | 25 (≈ 117 µM) | 25 (≈ 117 µM) | 12.5 (≈ 58.4 µM) | 12.5 (≈ 58.4 µM) | 25 (≈ 117 µM) | MIC ([1]; M. tb. DOU, pH 5.8): 25 µg/mL (≈ 117 µM) |
| NC(=O)c1cnccn1 [pyrazinamide] | – | – | – | – | – | – | – | – | – | – | – | – | – | – | > 200 | activity against M. bovis (M. bovis): not active; activity against other mycobacteria (other mycobacteria): not active; activity against M. tuberculosis [4]: only active against Mycobacterium (M.) tuberculosis; hepatotoxicity [5]: hepatotoxicity |
| C=CCOC(=O)c1cnccn1 [Allyl Pyrazinoate] | – | 6.25 (≈ 38.1 µM) | ≤ 3.12 | ≤ 3.12 | 3.12 (≈ 19 µM) | 6.25 (≈ 38.1 µM) | 6.25 (≈ 38.1 µM) | 3.12 (≈ 19 µM) | 3.12 (≈ 19 µM) | ≤ 3.12 | 3.12 (≈ 19 µM) | 6.25 (≈ 38.1 µM) | 6.25 (≈ 38.1 µM) | 6.25 (≈ 38.1 µM) | 100 (≈ 609 µM) | MIC ([1]; M. tb. BAK, pH 5.8): 3.12 µg/mL (≈ 19 µM) |
| Isopropyl thiopyrazinoate | – | – | – | – | – | – | – | – | – | – | – | – | – | – | – | activity in a standardized mouse test (tuberculosis): exhibited activity |
| CCCOC(=O)c1cnccn1 [n-Propyl Pyrazinoate] | ≤ 3.12 | ≤ 3.12 | ≤ 3.12 | ≤ 3.12 | ≤ 3.12 | ≤ 3.12 | 6.25 (≈ 37.6 µM) | ≤ 3.12 | 6.25 (≈ 37.6 µM) | ≤ 3.12 | ≤ 3.12 | – | 12.5 (≈ 75.2 µM) | 6.25 (≈ 37.6 µM) | > 200 | – |
